pIC50: −log10 of the molar value.
tested on: NMNAT2-V5 polypeptide; test: NMNAT2-V5 polypeptide expression in transfected Beas2B cells (Western blot), dose dependent, 24 h; assay type: cell-based; settings: Beas2B cells transfected with NMNAT2-V5 plasmid, compound for 24 hours, read-out: A: compound efficacy (IC50) for NMNAT2 activation
Protocol: FIG. 1. Beas2B cells were transfected with NMNAT2-V5 plasmid. 24 hours later, cells were treated with compounds in a dose dependent manner (0, 1, 5, and 25 μM) for additional 24 hours. Cells were then collected and assayed for NMNAT2-V5 protein expression.
Selected compounds were tested in vitro. Briefly, Beas2B cells were transfected with NMNAT2-V5 plasmid. 24 hours later, cells were treated with a test compound in a dose dependent manner for additional 24 hours. Cells were then collected and assayed for NMNAT2-V5 polypeptide expression. Results of the assay are shown in Table A. Western blots showing levels of NMNAT2-V5 polypeptide for selected compounds are shown in FIG. 1.

| Structure (SMILES) | pIC50 |
| --- | --- |
| CC(=O)Nc1ccc(NC(=O)c2ccccc2OCc2nc(-c3ccc(C)cc3)ns2)cc1 [BC18116] | ≤ 4.60 |
| COc1ccc(OC)c(CCNC(=O)C(Cc2ccccc2)N2Cc3ccccc3C2)c1 (stereo not shown) [BC18117] | 4.60 to 5.30 |
| COc1ccc(OCC(=O)Nc2ccc3c(c2)nc(CCNC(=O)c2cccs2)n3C)cc1 [BC18118] | ≤ 4.60 |
| O=C(CCc1nnc2n(Cc3ccccc3)c(=O)c3ccccc3n12)N1CCN(CCOc2ccc(Cl)cc2)CC1 [BC18120] | > 5.30 |
| Cc1n[nH]c(/C=C/c2ccc(N)cc2)c1S(=O)(=O)N1CCC(C(=O)N2CCN(Cc3ccc4c(c3)OCO4)CC2)CC1 [BC18123] | > 5.30 |
| O=C(COc1ccc(F)cc1)N1CCN(Cc2cccc(-c3n[nH]c(-c4cccc(Cl)c4)n3)c2)CC1 [BC18124] | > 5.30 |
| O=C(CSC1=Nc2ccccc2C2=NC(CCC(=O)N3CCN(c4ccccc4)CC3)C(=O)C12)NCC1CCCO1 (stereo not shown) [BC18130] | 4.60 to 5.30 |
| CCn1cc(C(=O)NC(C)c2ccc3c(c2)OCCO3)c(=O)c2cc(S(=O)(=O)N3CCc4ccccc4C3)ccc21 (stereo not shown) [BC18131] | 4.60 to 5.30 |
| O=C(COc1nc2cc(C(=O)NCc3ccc(F)cc3)ccc2c(=O)n1CCOO)c1ccc(O)cc1 [BC18132] | > 5.30 |
| COc1cccc(NS(=O)(=O)c2ccc3[nH]cc(C(=O)NC(C)c4ccc5c(c4)OCCO5)c(=O)c3c2)c1 (stereo not shown) [BC18134] | ≤ 4.60 |
| N#Cc1nc(-c2ccc(COc3ccccc3)s2)sc1OCCc1ccc(ON)cc1 [BC18135] | ≤ 4.60 |
| O=C(COCc1cc(-c2cccs2)sn1)NCCN1CCC(Cc2ccccc2)CC1 [BC18136] | ≤ 4.60 |
| CC(=O)Nc1ccc(NC(=O)c2ccccc2OCc2nc(-c3ccc(C)cc3)ns2)cc1 [BC18137] | 4.60 to 5.30 |

More lines, now with the values ahead:

| pIC50 | Structure (SMILES) |
| --- | --- |
| ≤ 4.60 | CN(CCc1nsc(-c2ccc(C(=O)NCc3ccc4c(c3)OCO4)cc2)n1)C(=O)c1ccccc1 [BC18121] |
| 4.60 to 5.30 | O=C(Cn1c(=O)[nH]c2ccccc2c1=O)NCc1ccncc1 [BC18122] |
| > 5.30 | Cc1ccc2onc(CNC(=O)NCc3cccc(Cl)c3)c2c1 [BC18125] |
| > 5.30 | O=C(Cn1ccc2ccc(F)cc21)NCc1ccco1 [BC18126] |
| 4.60 to 5.30 | O=C(Cn1ccc2ccc(F)cc21)NCc1ccccn1 [BC18127] |
| > 5.30 | Cc1cc(C)n(CC(=O)NCc2ccco2)c(=O)c1C#N [BC18128] |
| 4.60 to 5.30 | Cc1ccc2onc(CNC(=O)NCc3ccccn3)c2c1 [BC18129] |
| 4.60 to 5.30 | COc1ccc(OC)c(CCNC(=O)C(Cc2ccccc2)N2Cc3ccccc3C2=O)c1 (stereo not shown) [BC18133] |
| 4.60 to 5.30 | COc1ccc(OC)c(CCNC(=O)C(Cc2ccccc2)N2Cc3ccccc3C2=O)c1 (stereo not shown) [BC18138] |

Source: patent US20220169632A1, “METHODS AND MATERIALS FOR INCREASING OR MAINTAINING NICOTINAMIDE MONONUCLEOTIDE ADENYLYL TRANSFERASE-2 (NMNAT2) POLYPEPTIDE LEVELS” (University of Pittsburgh - Of the Commonwealth System of …, priority 2019, published 2022)
